A short description of data set [1]: tissue distribution (TD) assay in mouse, brain and plasma. It is filed as in vivo, male C57BL/6 mouse. The conditions noted are these: for AUC: male, C57BL/6, mouse, plasma, po, 100 ug/kg; for Brain AUC: single PO 100 μg/kg, male C57BL/6 mouse, AUC 0-24 hr.
In data set [2] the test system is T3-responsive target genes. The experiment in a line: expression of T3-responsive target genes in brain, single PO administration. It is filed as in vivo, male C57BL/6 mouse. To be noted: LL-341070 about 0.1 to about 300 μg/kg, T3 about 300 μg/kg.
In data set [3] the target is T1, recombinant human FAAH (rhFAAH) (Homo sapiens, UniProt O00519).
T1 construct: purchased Cayman Chemical (Ann Arbor, MI, USA)
T1 sequence (O00519 1-579): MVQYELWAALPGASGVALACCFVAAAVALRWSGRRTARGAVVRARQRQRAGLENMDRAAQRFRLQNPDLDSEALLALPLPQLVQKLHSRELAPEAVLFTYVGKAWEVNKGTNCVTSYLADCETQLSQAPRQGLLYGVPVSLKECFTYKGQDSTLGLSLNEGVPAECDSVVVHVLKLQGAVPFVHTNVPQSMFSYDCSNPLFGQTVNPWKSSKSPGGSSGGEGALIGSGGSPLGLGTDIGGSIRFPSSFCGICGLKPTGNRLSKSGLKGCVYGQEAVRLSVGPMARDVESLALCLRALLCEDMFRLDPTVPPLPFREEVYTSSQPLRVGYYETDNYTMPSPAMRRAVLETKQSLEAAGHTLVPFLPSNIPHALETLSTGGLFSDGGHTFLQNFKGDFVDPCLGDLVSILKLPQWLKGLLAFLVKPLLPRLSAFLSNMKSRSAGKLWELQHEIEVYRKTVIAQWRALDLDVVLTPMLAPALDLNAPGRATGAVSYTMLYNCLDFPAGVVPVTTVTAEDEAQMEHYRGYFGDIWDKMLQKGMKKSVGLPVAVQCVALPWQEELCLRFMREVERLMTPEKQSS
The experiment in a line: FAAH substrate evaluation: formation of acid metabolite. The data set is classed as biochemical. To be noted: 0.5 ng/μL rhFAAH, 1 μM test compound, room temperature, pH 8.0, 0-60 minutes. As for the experimental part: Purified recombinant human FAAH (rhFAAH) was purchased from Cayman Chemical (Ann Arbor, MI, USA). The total volume for each incubation was 400 μL containing a final 0.5 ng/μL rhFAAH, 1 μM test compound, 1.25% ethanol or 1 μM PF-3845 (FAAH inhibitor), and 0.1% bovine serum albumin in Tris-EDTA buffer at pH 8.0). The positive control was LL-341001. The incubation was conducted at the room temperature. At 0, 5, 15, 30 and 60 minutes, an aliquot of 30 μL reaction mixtures was removed and mixed with 300 μL acetonitrile containing 5 ng/mL terfenadine and 10 ng/mL tolbutamide as internal standards to quench the reaction. The resulting mixture was centrifuged at 4000 rpm, 4° C. for 15 minutes, and 100 μL supernatant was ready for LC-MS/MS analysis to measure the formation of acid metabolite.
Acquity Ultra Performance LC system from Waters was used for sample analysis. The chromatography was performed on a reverse phase Kinetex 2.6 μm C18 column, 2.1×30 mm, 100 Å. The mobile phase A comprised of 0.1% formic acid in water and mobile phase B comprised of 0.1% formic acid in acetonitrile with a 2-min run time at the flow rate of 0.8 mL/min for the acid metabolite from positive control or a 1.5 min run time at the flow rate of 0.9 mL/min for the acid metabolite of test compounds. The mass spectrometer (API-5500 and API Q Trap 4000 Applied Biosystems/MDS SCIEX Instruments, Framingham, MA, USA) was operated under ESI positive or negative ion MRM mode.
The formation of acid metabolite was monitored and quantified using one calibration point of 1 μM. The observed rate constant (ke) for the acid metabolite formation was calculated by plotting the metabolite concentration versus time of incubation with the slope being ke and is shown in Table 1.

The test system of data set [4] is T3-responsive target genes. Description: expression of T3-responsive target genes in brain, rat cuprizone model. The data set is classed as in vivo. The conditions noted are these: 21 day repeat administration; LL-341070 30 or 100 μg/kg, T3 300 μg/kg; Nanostring.
The nature of data set [5]: brain and plasma concentration in rat cuprizone model after 21 days repeat administration. It is filed as in vivo. The conditions noted are these: 21 days repeat administration 30 or 100 μg/kg, 4 hours post-final dose. As to the method: In vivo brain exposure of active compound compared to prodrug was assessed via tissue distribution (TD) assay in mouse and rat cuprizone model, measured as brain exposure ratio of brain to plasma following thyromimetic treatment. […] Table 3 also depicts brain-to-plasma AUC ratio.

As a reminder, the AUC is the area under the concentration-time curve, a measure of exposure. The low end stands for low exposure, the high end for high exposure.

With `CNC(=O)COc1cc(Cl)c(Cc2ccc(O)c(C(C)C)c2F)c(Cl)c1` [Compound 31], in data set [1], the exposure (AUC) is 18.8 ng·h/mL and the “Brain AUC” value was determined as 10.9 ng·h/mL. Moreover, the “expression of Hr, Dio3, Klf9 in brain” value in data set [2] is listed as “increases expression of Hr, Dio3, Klf9”. Besides, the “ke (observed rate constant for the acid metabolite formation)” value in data set [3] is “A (A = ke is more than or equal to 0.1)”. The “expression of T3-responsive genes in brain” value in data set [4] is reported as “expression increase was confirmed”.
As for `CC(C)c1c(O)ccc(Cc2c(Cl)cc(OCC(=O)O)cc2Cl)c1F` [LL-341070A], in data set [1], the AUC worked out at 35.8 ng·h/mL and the “Brain AUC” value is 73.9 ng·h/mL. Further, the “brain exposure compared to prodrug LL-341070” value in data set [5] is “enhanced brain exposure”.
